In publication PMC7534383, “Structure-activity relationship of 7-aryl-2-anilino-pyrrolopyrimidines as Mer and Axl tyrosine kinase inhibitors” (Journal of Enzyme Inhibition and Medicinal Chemistry, 2020):
Like-named read-outs stand apart in the source and are kept apart here.

Columns and labels:
Format in all cases: biochemical
TYRO3 = molecular target: T1, TYRO3 (Homo sapiens, UniProt Q06418); assay: Kinase assay at Km ATP (Eurofins Discovery), Tyro3
T1 sequence (Q06418 41-890): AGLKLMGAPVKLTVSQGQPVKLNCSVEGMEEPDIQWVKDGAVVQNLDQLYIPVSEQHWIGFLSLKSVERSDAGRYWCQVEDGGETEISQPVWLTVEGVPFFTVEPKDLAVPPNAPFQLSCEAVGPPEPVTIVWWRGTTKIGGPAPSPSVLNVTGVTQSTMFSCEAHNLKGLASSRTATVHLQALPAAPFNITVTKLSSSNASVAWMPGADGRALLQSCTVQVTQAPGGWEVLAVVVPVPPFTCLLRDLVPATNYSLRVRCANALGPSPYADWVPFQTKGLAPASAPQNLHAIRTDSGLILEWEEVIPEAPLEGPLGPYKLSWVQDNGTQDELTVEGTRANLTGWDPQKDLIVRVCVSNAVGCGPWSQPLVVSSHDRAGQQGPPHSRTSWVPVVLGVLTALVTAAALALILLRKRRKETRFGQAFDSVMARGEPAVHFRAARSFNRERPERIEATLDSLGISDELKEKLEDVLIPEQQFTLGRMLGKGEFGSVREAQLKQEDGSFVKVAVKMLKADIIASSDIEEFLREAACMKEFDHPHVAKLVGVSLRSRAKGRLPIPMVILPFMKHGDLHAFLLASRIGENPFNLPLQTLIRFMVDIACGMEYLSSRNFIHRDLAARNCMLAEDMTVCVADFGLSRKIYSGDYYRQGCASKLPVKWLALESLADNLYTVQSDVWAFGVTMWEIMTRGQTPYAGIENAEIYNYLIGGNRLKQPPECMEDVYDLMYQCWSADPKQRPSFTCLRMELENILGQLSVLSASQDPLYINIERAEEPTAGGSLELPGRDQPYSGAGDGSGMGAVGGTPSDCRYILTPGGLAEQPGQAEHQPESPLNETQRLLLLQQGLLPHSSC
Experimental: (§1) All kinase assays were carried out at Km ATP by Eurofins Discovery's Kinase Screening and Profiling services (France).

MERTK = molecular target: T2, MERTK (Homo sapiens, UniProt Q12866); assay: Kinase assay at Km ATP (Eurofins Discovery), Mer; settings: for IC50: Km ATP
T2 sequence (Q12866 21-999): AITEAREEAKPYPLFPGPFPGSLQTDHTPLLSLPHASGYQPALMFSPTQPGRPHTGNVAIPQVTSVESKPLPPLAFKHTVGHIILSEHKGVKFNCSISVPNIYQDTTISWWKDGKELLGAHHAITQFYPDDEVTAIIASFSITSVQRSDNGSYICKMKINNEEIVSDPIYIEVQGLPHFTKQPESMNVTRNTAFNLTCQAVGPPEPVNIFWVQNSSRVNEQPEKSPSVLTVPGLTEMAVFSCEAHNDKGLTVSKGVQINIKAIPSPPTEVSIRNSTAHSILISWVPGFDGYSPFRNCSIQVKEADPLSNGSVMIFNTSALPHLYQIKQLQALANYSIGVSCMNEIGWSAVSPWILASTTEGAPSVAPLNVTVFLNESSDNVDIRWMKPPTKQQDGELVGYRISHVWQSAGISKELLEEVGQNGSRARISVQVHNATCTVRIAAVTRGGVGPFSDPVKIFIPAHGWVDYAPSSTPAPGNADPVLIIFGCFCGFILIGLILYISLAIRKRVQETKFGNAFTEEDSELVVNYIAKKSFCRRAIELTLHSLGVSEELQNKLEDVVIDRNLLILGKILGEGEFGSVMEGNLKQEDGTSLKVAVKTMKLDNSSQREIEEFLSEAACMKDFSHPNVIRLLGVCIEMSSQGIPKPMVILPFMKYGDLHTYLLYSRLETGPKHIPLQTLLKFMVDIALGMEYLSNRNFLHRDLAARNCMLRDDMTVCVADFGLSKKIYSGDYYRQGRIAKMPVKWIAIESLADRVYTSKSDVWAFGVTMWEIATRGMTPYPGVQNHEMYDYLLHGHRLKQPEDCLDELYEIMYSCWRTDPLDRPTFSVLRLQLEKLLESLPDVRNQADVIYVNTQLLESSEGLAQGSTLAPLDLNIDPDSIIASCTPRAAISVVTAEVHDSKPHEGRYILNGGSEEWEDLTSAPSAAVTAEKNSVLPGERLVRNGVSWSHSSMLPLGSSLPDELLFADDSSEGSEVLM
Experimental: as §1

AXL = molecular target: T3, AXL (Homo sapiens, UniProt P30530); assay: Kinase assay at Km ATP (Eurofins Discovery), Axl; settings: for IC50: Km ATP
T3 sequence (P30530 26-894): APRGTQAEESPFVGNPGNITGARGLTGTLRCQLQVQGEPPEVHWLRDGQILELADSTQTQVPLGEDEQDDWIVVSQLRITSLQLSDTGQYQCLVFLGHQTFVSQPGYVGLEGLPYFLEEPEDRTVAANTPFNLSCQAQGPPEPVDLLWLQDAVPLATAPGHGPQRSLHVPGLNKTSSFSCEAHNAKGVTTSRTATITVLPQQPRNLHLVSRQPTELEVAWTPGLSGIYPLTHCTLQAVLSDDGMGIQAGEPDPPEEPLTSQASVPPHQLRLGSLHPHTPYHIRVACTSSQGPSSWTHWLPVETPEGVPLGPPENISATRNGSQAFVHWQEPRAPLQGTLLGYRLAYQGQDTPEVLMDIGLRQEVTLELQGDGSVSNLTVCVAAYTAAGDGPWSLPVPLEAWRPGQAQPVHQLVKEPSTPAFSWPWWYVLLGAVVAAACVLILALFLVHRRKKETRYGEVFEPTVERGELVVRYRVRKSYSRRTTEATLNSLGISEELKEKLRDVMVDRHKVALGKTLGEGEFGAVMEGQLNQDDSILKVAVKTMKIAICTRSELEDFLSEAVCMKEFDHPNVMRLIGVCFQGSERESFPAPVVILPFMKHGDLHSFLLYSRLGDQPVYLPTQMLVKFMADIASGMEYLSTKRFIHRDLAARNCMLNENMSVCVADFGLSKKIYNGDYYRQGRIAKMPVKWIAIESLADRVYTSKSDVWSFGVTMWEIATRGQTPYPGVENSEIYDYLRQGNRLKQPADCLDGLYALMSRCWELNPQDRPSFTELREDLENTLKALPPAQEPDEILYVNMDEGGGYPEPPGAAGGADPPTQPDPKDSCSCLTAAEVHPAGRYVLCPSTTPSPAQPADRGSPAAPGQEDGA
Experimental: as §1

[1] = Table 1, mean values, read-out: IC50 (nM) MERTK
[2] = Table 2, read-out: IC50 (nM) MER
[3] = Table 3, read-out: IC50 (nM) MER

| Compound | inhibition at 1 µM (TYRO3) | IC50 (MERTK; [2]) | IC50 (AXL; Table 2) | other results |
| --- | --- | --- | --- | --- |
| COc1ccc(-n2ccc3cnc(Nc4cccc(OC)c4)nc32)cc1 [Compound 2, N-(3-Methoxyphenyl)-7–(4-methoxyphenyl)-7H-pyrrolo[2,3-d]pyrimidin-2-amine] | 38% | – | – | IC50 (MERTK; [1]): 39 nM; IC50 (AXL; Table 1, mean values): 1240 nM |
| COc1ccc(-n2ccc3cnc(Nc4ccccc4)nc32)cc1 [Compound 3, 7–(4-Methoxyphenyl)-N-phenyl-7H-pyrrolo[2,3-d]pyrimidin-2-amine] | 44% | – | – | IC50 (MERTK; [1]): 95 nM; IC50 (AXL; Table 1, mean values): 751 nM |
| COc1ccc(-n2ccc3cnc(Nc4cccc(-c5ccccc5)c4)nc32)cc1 [Compound 4, N-([1,1′-Biphenyl]-3-yl)-7–(4-methoxyphenyl)-7H-pyrrolo[2,3-d]pyrimidin-2-amine] | 12% | – | – | IC50 (MERTK; [1]): > 3000 nM; IC50 (AXL; Table 1, mean values): > 3000 nM |
| COc1ccc(-n2ccc3cnc(N4CCN(C)CC4)nc32)cc1 [Compound 5, 7–(4-Methoxyphenyl)-2–(4-methylpiperazin-1-yl)-7H-pyrrolo[2,3-d]pyrimidine] | 0% | – | – | IC50 (MERTK; [1]): > 1000 nM; IC50 (AXL; Table 1, mean values): > 1000 nM |
| COc1ccc(-n2ccc3cnc(Nc4ccc(NC5CCN(C)CC5)c(OC)c4)nc32)cc1 [Compound 17, 2-Methoxy-N4-(7–(4-methoxyphenyl)-7H-pyrrolo[2,3-d]pyrimidin-2-yl)-N1-(1-methylpiperidin-4-yl)benzene-1,4-diamine] | 37% | 10 nM | 199 nM | – |
| COc1ccc(-n2ccc3cnc(Nc4ccc(N5CCC(N(C)C)C5)c(OC)c4)nc32)cc1 (stereo not shown) [Compound 18, N-(4–(3-(Dimethylamino)pyrrolidin-1-yl)-3-methoxyphenyl)-7–(4-methoxyphenyl)-7H-pyrrolo[2,3-d]pyrimidin-2-amine] | 30% | 46 nM | 175 nM | – |
| COc1ccc(-n2ccc3cnc(Nc4cc(OC)cc(N5CCC6(CCCC6)CC5)c4)nc32)cc1 [Compound 31, N-(3-Methoxy-5–(8-azaspiro[4.5]decan-8-yl)phenyl)-7–(4-methoxyphenyl)-7H-pyrrolo[2,3-d]pyrimidin-2-amine] | 4% | > 3000 nM | > 3000 nM | – |
| COc1ccc(-n2ccc3cnc(Nc4cc(OC)cc(N5CCC6(CCCO6)CC5)c4)nc32)cc1 [Compound 32, N-(3-Methoxy-5–(1-oxa-8-azaspiro[4.5]decan-8-yl)phenyl)-7–(4-methoxyphenyl)-7H-pyrrolo[2,3-d]pyrimidin-2-amine] | 0% | – | 288 nM | – |
| COc1cc(Nc2ncc3ccn(-c4ccc(OC(F)(F)F)cc4)c3n2)cc(N2CCC(N3CCCC3)CC2)c1 [Compound 33, N-(3-Methoxy-5–(4-(pyrrolidin-1-yl)piperidin-1-yl)phenyl)-7–(4-(trifluoromethoxy)phenyl)-7H-pyrrolo[2,3-d]pyrimidin-2-amine] | 23% | – | – | IC50 (MERTK; [3]): 9 nM; IC50 (AXL; Table 3): 57 nM |
| COc1cc(Nc2ncc3ccn(-c4ccccc4)c3n2)cc(N2CCC(N3CCCC3)CC2)c1 [Compound 34, N-(3-Methoxy-5–(4-(pyrrolidin-1-yl)piperidin-1-yl)phenyl)-7-phenyl-7H-pyrrolo[2,3-d]pyrimidin-2-amine] | 35% | – | – | IC50 (MERTK; [3]): 17 nM; IC50 (AXL; Table 3): 48 nM |
| COc1cc(Nc2ncc3ccn(-c4nccs4)c3n2)cc(N2CCC(N3CCCC3)CC2)c1 [Compound 35, N-(3-Methoxy-5–(4-(pyrrolidin-1-yl)piperidin-1-yl)phenyl)-7-(thiazol-2-yl)-7H-pyrrolo[2,3-d]pyrimidin-2-amine] | 16% | – | – | IC50 (MERTK; [3]): 64 nM; IC50 (AXL; Table 3): 247 nM |

Further lines, with some results ahead:

| inhibition at 1 µM (TYRO3) | IC50 (MERTK; [2]) | IC50 (AXL; Table 2) | Compound | other results |
| --- | --- | --- | --- | --- |
| 27% | 15 nM | 104 nM | COc1ccc(-n2ccc3cnc(Nc4ccc(N5CCN(C)CC5)c(OC)c4)nc32)cc1 [Compound 16, N-(3-Methoxy-4–(4-methylpiperazin-1-yl)phenyl)-7–(4-methoxyphenyl)-7H-pyrrolo[2,3-d]pyrimidin-2-amine] | fold decreased IC50 for Mer compared to 2 (MERTK; relative to compound 2): 2.6 fold; fold decreased IC50 for Axl compared to 2 (AXL; relative to compound 2): 12 fold |
| 86% | 2 nM | 17 nM | COc1ccc(-n2ccc3cnc(Nc4cc(OC)cc(N5CCN(C)CC5)c4)nc32)cc1 [Compound 25, N-(3-Methoxy-5–(4-methylpiperazin-1-yl)phenyl)-7–(4-methoxyphenyl)-7H-pyrrolo[2,3-d]pyrimidin-2-amine] | – |
| 92% | 4 nM | 18 nM | COc1ccc(-n2ccc3cnc(Nc4cc(CN5CCN(C)CC5)cc(OC)c4)nc32)cc1 [Compound 26, N-(3-Methoxy-5-((4-methylpiperazin-1-yl)methyl)phenyl)-7–(4-methoxyphenyl)-7H-pyrrolo[2,3-d]pyrimidin-2-amine] | – |
| 72% | 7 nM | 32 nM | COc1ccc(-n2ccc3cnc(Nc4cc(OC)cc(N5CCC(C)(N6CCCC6)CC5)c4)nc32)cc1 [Compound 28, N-(3-Methoxy-5–(4-methyl-4-(pyrrolidin-1-yl)piperidin-1-yl)phenyl)-7–(4-methoxyphenyl)-7H-pyrrolo[2,3-d]pyrimidin-2-amine] | – |
| 49% | 31 nM | 31 nM | COc1ccc(-n2ccc3cnc(Nc4cc(OC)cc(N5CCCC(N6CCCC6)C5)c4)nc32)cc1 (stereo not shown) [Compound 29, N-(3-Methoxy-5–(3-(pyrrolidin-1-yl)piperidin-1-yl)phenyl)-7–(4-methoxyphenyl)-7H-pyrrolo[2,3-d]pyrimidin-2-amine] | – |
| 39% | 36 nM | 212 nM | COc1ccc(-n2ccc3cnc(Nc4cc(OC)cc(N5CCN(C6COC6)CC5)c4)nc32)cc1 [Compound 30, N-(3-Methoxy-5–(4-(oxetan-3-yl)piperazin-1-yl)phenyl)-7–(4-methoxyphenyl)-7H-pyrrolo[2,3-d]pyrimidin-2-amine] | – |
